Assay results reported in patent publication US9340590B2 (priority 2011, dated 2016).
pIC50: −log10 of the molar value. Positions of bridges follow the written chain, without caps; N, C: chain ends. Non-standard residues stand in square brackets, D forms with d. Residues, ends and D or L forms follow the SMILES beside them. Pra = C#CC[C@H](N)C(=O)O; Nva = CCC[C@H](N)C(=O)O; Abu = CC[C@H](N)C(=O)O

Tests used:
Assay in all cases: cell-based
hNav1.4 = hNav1.4 (Homo sapiens, UniProt P35499); conditions: IonWorks Quattro, use-dependent block, hNav1.4; read-out: IWQ Use Nav1.4
hNav1.4, sequence (P35499 whole entry, looked up): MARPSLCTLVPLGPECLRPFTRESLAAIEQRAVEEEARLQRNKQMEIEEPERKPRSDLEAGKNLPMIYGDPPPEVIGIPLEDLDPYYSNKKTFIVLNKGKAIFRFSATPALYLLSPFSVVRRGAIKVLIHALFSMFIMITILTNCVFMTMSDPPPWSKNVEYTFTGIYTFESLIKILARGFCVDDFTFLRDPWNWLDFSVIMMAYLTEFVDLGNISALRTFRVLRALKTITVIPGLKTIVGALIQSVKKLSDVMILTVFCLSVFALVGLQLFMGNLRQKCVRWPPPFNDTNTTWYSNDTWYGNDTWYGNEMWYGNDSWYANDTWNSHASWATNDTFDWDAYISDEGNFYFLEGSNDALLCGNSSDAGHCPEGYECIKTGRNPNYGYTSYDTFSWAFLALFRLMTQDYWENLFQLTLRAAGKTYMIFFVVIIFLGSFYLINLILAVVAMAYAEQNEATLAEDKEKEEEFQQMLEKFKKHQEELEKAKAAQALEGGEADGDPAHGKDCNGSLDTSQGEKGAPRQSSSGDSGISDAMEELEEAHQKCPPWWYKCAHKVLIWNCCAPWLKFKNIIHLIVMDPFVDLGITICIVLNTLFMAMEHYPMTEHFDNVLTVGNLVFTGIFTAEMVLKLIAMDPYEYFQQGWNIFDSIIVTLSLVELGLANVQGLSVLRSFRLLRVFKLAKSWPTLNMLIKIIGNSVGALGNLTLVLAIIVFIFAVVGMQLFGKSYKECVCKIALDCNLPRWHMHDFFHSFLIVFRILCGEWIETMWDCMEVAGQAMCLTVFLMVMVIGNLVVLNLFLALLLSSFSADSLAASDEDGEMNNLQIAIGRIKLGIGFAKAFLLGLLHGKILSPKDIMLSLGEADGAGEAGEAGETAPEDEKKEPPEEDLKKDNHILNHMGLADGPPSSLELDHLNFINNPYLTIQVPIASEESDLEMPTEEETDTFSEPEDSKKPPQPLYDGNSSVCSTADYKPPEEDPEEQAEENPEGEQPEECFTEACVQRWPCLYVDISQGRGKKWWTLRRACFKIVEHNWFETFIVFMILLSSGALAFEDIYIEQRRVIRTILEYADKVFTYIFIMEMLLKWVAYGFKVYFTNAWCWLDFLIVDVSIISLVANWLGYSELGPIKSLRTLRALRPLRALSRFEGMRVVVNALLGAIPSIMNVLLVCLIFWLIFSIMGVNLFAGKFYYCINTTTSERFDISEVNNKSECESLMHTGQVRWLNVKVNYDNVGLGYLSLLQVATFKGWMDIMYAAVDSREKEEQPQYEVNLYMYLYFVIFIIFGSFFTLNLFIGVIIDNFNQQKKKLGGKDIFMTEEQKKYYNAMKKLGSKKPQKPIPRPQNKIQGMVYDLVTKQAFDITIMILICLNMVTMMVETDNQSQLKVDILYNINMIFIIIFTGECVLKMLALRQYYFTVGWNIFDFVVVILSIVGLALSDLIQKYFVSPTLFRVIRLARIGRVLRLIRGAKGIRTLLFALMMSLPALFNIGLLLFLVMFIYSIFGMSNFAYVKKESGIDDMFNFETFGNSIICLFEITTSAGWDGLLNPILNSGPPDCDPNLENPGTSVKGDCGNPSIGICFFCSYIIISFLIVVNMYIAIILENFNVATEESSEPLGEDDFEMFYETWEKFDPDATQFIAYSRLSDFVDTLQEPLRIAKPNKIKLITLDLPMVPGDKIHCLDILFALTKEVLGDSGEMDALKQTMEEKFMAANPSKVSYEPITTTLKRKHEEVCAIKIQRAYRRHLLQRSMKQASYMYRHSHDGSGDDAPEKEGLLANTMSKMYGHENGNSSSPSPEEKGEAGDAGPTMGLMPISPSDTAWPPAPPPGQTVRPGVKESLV

hNav1.3 = hNav1.3 (Homo sapiens, UniProt Q9NY46); conditions: IonWorks Quattro, use-dependent block, hNav1.3; read-out: IWQ Use Nav1.3
hNav1.5 = hNav1.5 (Homo sapiens, UniProt Q14524); conditions: IonWorks Quattro, use-dependent block, hNav1.5; read-out: IWQ Use Nav1.5
hNav1.5, sequence (Q14524 whole entry, looked up): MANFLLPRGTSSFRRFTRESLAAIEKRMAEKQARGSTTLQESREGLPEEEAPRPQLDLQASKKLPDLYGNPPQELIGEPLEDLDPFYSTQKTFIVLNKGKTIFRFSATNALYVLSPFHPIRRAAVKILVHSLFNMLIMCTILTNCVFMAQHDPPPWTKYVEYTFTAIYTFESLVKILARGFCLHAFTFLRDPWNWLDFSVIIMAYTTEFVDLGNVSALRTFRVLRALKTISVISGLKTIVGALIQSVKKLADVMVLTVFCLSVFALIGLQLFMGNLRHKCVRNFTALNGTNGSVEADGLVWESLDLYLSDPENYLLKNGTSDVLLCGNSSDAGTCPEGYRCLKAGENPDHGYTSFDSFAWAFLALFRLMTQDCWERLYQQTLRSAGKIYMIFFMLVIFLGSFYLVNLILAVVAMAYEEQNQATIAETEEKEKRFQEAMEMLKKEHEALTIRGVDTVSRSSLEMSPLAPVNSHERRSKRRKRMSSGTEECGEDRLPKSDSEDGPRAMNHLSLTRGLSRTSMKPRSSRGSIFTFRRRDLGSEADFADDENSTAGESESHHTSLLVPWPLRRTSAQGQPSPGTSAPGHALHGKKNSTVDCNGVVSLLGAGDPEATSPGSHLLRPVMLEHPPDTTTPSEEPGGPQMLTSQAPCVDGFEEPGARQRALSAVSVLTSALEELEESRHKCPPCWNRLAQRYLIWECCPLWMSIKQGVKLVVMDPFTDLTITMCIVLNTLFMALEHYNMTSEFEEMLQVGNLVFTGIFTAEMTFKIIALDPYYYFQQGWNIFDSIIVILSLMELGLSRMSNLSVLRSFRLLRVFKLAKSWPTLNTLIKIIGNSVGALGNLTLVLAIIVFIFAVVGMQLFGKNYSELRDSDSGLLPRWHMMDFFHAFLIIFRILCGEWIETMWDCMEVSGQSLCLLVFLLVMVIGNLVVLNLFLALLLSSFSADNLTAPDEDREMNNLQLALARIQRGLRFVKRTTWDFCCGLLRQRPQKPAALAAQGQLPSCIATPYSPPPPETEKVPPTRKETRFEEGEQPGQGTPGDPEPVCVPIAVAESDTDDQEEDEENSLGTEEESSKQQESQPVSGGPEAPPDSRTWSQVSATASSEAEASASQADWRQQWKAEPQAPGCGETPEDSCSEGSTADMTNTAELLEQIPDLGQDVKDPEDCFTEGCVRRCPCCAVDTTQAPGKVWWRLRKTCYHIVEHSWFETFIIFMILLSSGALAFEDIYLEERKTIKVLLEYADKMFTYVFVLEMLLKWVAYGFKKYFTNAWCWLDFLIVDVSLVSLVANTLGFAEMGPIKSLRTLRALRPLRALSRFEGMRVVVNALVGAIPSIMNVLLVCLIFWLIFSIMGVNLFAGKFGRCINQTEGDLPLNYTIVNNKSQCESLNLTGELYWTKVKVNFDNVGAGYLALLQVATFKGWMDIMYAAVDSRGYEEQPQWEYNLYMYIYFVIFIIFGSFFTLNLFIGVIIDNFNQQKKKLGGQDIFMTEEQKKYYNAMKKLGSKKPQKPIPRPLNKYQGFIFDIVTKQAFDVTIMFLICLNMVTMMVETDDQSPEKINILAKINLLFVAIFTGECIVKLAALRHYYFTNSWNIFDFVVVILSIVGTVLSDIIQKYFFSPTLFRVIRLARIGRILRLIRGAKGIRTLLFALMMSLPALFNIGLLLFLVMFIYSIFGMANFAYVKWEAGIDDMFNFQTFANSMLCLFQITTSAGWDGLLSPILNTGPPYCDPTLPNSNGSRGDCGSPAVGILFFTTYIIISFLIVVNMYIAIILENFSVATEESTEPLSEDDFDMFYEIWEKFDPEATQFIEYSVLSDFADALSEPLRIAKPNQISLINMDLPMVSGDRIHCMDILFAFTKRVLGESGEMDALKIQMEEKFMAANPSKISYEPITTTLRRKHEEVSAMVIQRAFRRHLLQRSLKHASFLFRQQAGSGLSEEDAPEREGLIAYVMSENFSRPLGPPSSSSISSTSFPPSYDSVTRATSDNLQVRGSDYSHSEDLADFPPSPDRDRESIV

hNav1.7 = hNav1.7 (Homo sapiens, UniProt Q15858); format: cell-based; conditions: for pIC50: IonWorks Quattro, use-dependent block, hNav1.7, read-out: IWQ Use Nav1.7
[1] = ratio of IWQ Use values, Nav1.7 over Nav1.3

SMILES	pIC50 (hNav1.4)	pIC50 (hNav1.3)	pIC50 (hNav1.5)	pIC50 (hNav1.7)	Nav1.7/Nav1.3 (hNav1.7; [1])	Nav1.7/Nav1.3 (hNav1.7; ratio of IWQ Use values Nav1.7 to Nav1.3)
CC[C@H](C)[C@@H]1NC(=O)[C@@H]2CSSC[C@@H]3NC(=O)[C@H](C(C)C)NC(=O)[C@H](CC(C)C)NC(=O)[C@H](CC(N)=O)NC(=O)[C@@H]4CCCN4C(=O)[C@H](CCCNC(=N)N)NC(=O)[C@H](CSSC[C@H](NC(=O)[C@H](CC(=O)O)NC(=O)[C@H](CO)NC(=O)CN)C(=O)N[C@@H](CC(C)C)C(=O)NCC(=O)N[C@@H](C)C(=O)N[C@@H](CC(C)C)C(=O)N[C@@H](CCCNC(=N)N)C(=O)N[C@@H](CCCCN)C(=O)N2)NC(=O)[C@H](CSSC[C@@H](C(=O)N[C@@H](CCCCN)C(=O)N[C@@H](Cc2ccc(O)cc2)C(=O)N[C@H](C(=O)N[C@@H](Cc2ccccc2)C(=O)N[C@@H](Cc2ccccc2)C(=O)O)C(C)C)NC(=O)[C@H](Cc2c[nH]c4ccccc24)NC(=O)[C@H](CCCNC(=N)N)NC(=O)[C@H](Cc2c[nH]cn2)NC(=O)[C@H]([C@@H](C)O)NC(=O)[C@H](CCCNC(=N)N)NC(=O)[C@H](CO)NC3=O)NC(=O)[C@H](CCCCN)NC(=O)[C@H](CC(=O)O)NC(=O)[C@H](CC(N)=O)NC(=O)[C@H](CC(=O)O)NC(=O)[C@@H]2CCCN2C1=O [compound 820] (H-GSDCLGALRKCIPDNDKCCRPNLVCSRTHRWCKYVFF-OH; disulfide 4-19, 11-25, 18-32)	< 5.30	6.30	< 5.30	6.30	1.0	–
CCC[C@H](NC(=O)CNC(=O)[C@H](CC(C)C)NC(=O)[C@H](CC)NC(=O)[C@@H](N)CC(=O)O)C(=O)N[C@@H](CC(C)C)C(=O)N[C@@H](CCCNC(=N)N)C(=O)N[C@@H](CCCCN)C(=O)N[C@H]1CSSC[C@@H]2NC(=O)[C@H](C(C)C)NC(=O)[C@H](CC(C)C)NC(=O)[C@H](CC(N)=O)NC(=O)[C@@H]3CCCN3C(=O)[C@H](CCCNC(=N)N)NC(=O)[C@H](CC)NC(=O)[C@H](CSSC[C@@H](C(=O)N[C@@H](CCCCN)C(=O)N[C@@H](Cc3ccc(O)cc3)C(=O)N[C@H](C(=O)N[C@@H](Cc3ccccc3)C(N)=O)C(C)C)NC(=O)[C@H](Cc3c[nH]c4ccccc34)NC(=O)[C@H](CCC(=O)O)NC(=O)[C@H](Cc3c[nH]cn3)NC(=O)[C@H]([C@@H](C)O)NC(=O)[C@H](CCCNC(=N)N)NC(=O)[C@H](CO)NC2=O)NC(=O)[C@H](CCCCN)NC(=O)[C@H](CC(=O)O)NC(=O)[C@H](CC(N)=O)NC(=O)[C@H](CC(=O)O)NC(=O)[C@@H]2CCCN2C(=O)[C@H]([C@@H](C)CC)NC1=O [compound 717] (H-D[Abu]LG[Nva]LRKCIPDNDKC[Abu]RPNLVCSRTHEWCKYVF-NH2; disulfide 9-23, 16-30)	< 4.30	< 5.30	< 4.30	< 5.30	–	–
CC[C@@H]1NC(=O)[C@@H]2CSSC[C@@H](C(=O)N[C@@H](CCCCN)C(=O)N[C@@H](Cc3ccc(O)cc3)C(=O)N[C@H](C(=O)N[C@@H](Cc3ccccc3)C(N)=O)C(C)C)NC(=O)[C@H](Cc3c[nH]c4ccccc34)NC(=O)[C@H](CCC(=O)O)NC(=O)[C@H](Cc3c[nH]cn3)NC(=O)[C@H]([C@@H](C)O)NC(=O)[C@H](CCCNC(=N)N)NC(=O)[C@H](CO)NC(=O)[C@H](CSSC[C@H](NC(=O)[C@H](CCCCN)NC(=O)[C@H](CCCNC(=N)N)NC(=O)[C@H](CC(C)C)NC(=O)[C@H](C)NC(=O)CNC(=O)[C@H](CC(C)C)NC(=O)[C@H](CC)NC(=O)[C@@H](N)CC(=O)O)C(=O)N[C@@H]([C@@H](C)CC)C(=O)N3CCC[C@H]3C(=O)N[C@@H](CC(=O)O)C(=O)N[C@@H](CC(N)=O)C(=O)N[C@@H](CC(=O)O)C(=O)N[C@@H](CCCCN)C(=O)N2)NC(=O)[C@H](C(C)C)NC(=O)[C@H](CC(C)C)NC(=O)[C@H](CC(N)=O)NC(=O)[C@@H]2CCCN2C(=O)[C@H](CCCNC(=N)N)NC1=O [compound 719] (H-D[Abu]LGALRKCIPDNDKC[Abu]RPNLVCSRTHEWCKYVF-NH2; disulfide 9-23, 16-30)	< 4.30	< 5.30	< 4.30	5.37	–	–
CC[C@@H]1NC(=O)[C@@H]2CSSC[C@@H](C(=O)N[C@@H](CCCCN)C(=O)N[C@@H](Cc3ccc(O)cc3)C(=O)N[C@H](C(=O)N[C@@H](Cc3ccccc3)C(N)=O)C(C)C)NC(=O)[C@H](Cc3c[nH]c4ccccc34)NC(=O)[C@H](CCCCN)NC(=O)[C@H](Cc3c[nH]cn3)NC(=O)[C@H]([C@@H](C)O)NC(=O)[C@H](CCCNC(=N)N)NC(=O)[C@H](CO)NC(=O)[C@H](CSSC[C@H](NC(=O)[C@H](CCCCN)NC(=O)[C@H](CCCNC(=N)N)NC(=O)[C@H](CCSC)NC(=O)[C@H](C)NC(=O)CNC(=O)[C@H](CC(C)C)NC(=O)[C@H](CC)NC(=O)[C@@H](N)CC(=O)O)C(=O)N[C@@H](CC(=O)O)C(=O)N3CCC[C@H]3C(=O)N[C@@H](CC(=O)O)C(=O)N[C@@H](CC(N)=O)C(=O)N[C@@H](CC(=O)O)C(=O)N[C@@H](CCCCN)C(=O)N2)NC(=O)[C@H](C(C)C)NC(=O)[C@H](CC(C)C)NC(=O)[C@H](CC(N)=O)NC(=O)[C@@H]2CCCN2C(=O)[C@H](CCCNC(=N)N)NC1=O [compound 716] (H-D[Abu]LGAMRKCDPDNDKC[Abu]RPNLVCSRTHKWCKYVF-NH2; disulfide 9-23, 16-30)	< 4.30	< 5.30	4.31	5.43	–	–
CC[C@H](NC(=O)CNC(=O)[C@H](CC(C)C)NC(=O)[C@H](CC)NC(=O)[C@@H](N)CC(=O)O)C(=O)N[C@@H](CC(C)C)C(=O)N[C@@H](CCCNC(=N)N)C(=O)N[C@@H](CCCCN)C(=O)N[C@H]1CSSC[C@@H]2NC(=O)[C@H](C(C)C)NC(=O)[C@H](CC(C)C)NC(=O)[C@H](CC(N)=O)NC(=O)[C@@H]3CCCN3C(=O)[C@H](CCCNC(=N)N)NC(=O)[C@H](CC)NC(=O)[C@H](CSSC[C@@H](C(=O)N[C@@H](CCCCN)C(=O)N[C@@H](Cc3ccc(O)cc3)C(=O)N[C@H](C(=O)N[C@@H](Cc3ccccc3)C(N)=O)C(C)C)NC(=O)[C@H](Cc3c[nH]c4ccccc34)NC(=O)[C@H](CCC(=O)O)NC(=O)[C@H](Cc3c[nH]cn3)NC(=O)[C@H]([C@@H](C)O)NC(=O)[C@H](CCCNC(=N)N)NC(=O)[C@H](CO)NC2=O)NC(=O)[C@H](CCCCN)NC(=O)[C@H](CC(=O)O)NC(=O)[C@H](CC(N)=O)NC(=O)[C@H](CC(=O)O)NC(=O)[C@@H]2CCCN2C(=O)[C@H]([C@@H](C)CC)NC1=O [compound 718] (H-D[Abu]LG[Abu]LRKCIPDNDKC[Abu]RPNLVCSRTHEWCKYVF-NH2; disulfide 9-23, 16-30)	< 4.30	< 5.30	< 4.30	5.37	–	–
CC[C@H](C)[C@@H]1NC(=O)[C@@H]2CSSC[C@@H]3NC(=O)[C@H](C(C)C)NC(=O)[C@H](CC(C)C)NC(=O)[C@H](CC(N)=O)NC(=O)[C@@H]4CCCN4C(=O)[C@H](CCCNC(=N)N)NC(=O)[C@H](CSSC[C@H](NC(=O)[C@H](CC(=O)O)NC(=O)[C@H](CO)NC(=O)CN)C(=O)N[C@@H](CC(C)C)C(=O)NCC(=O)N[C@@H](C)C(=O)N[C@@H](CC(C)C)C(=O)N[C@@H](CCCNC(=N)N)C(=O)N[C@@H](CCCCN)C(=O)N2)NC(=O)[C@H](CSSC[C@@H](C(=O)N[C@@H](CCCCN)C(=O)N[C@@H](Cc2ccc(O)cc2)C(=O)N[C@H](C(=O)N[C@@H](Cc2ccccc2)C(=O)O)C(C)C)NC(=O)[C@H](Cc2c[nH]c4ccccc24)NC(=O)[C@H](CCCNC(=N)N)NC(=O)[C@H](Cc2c[nH]cn2)NC(=O)[C@H]([C@@H](C)O)NC(=O)[C@H](CCCNC(=N)N)NC(=O)[C@H](CO)NC3=O)NC(=O)[C@H](CCCCN)NC(=O)[C@H](CC(=O)O)NC(=O)[C@H](CC(N)=O)NC(=O)[C@H](CC(=O)O)NC(=O)[C@@H]2CCCN2C1=O [compound 822] (H-GSDCLGALRKCIPDNDKCCRPNLVCSRTHRWCKYVF-OH; disulfide 4-19, 11-25, 18-32)	< 5.30	5.43	< 5.30	5.43	1.0	–
C#CC[C@@H]1NC(=O)[C@H](CC(=O)O)NC(=O)[C@@H]2CCCN2C(=O)[C@H](CCC(=O)O)NC(=O)[C@@H]2CSSC[C@@H]3NC(=O)[C@H](C(C)C)NC(=O)[C@H](CC(C)C)NC(=O)[C@H](CC(N)=O)NC(=O)[C@@H]4CCCN4C(=O)[C@H](CCCNC(=N)N)NC(=O)[C@H](CSSC[C@H](NC(=O)[C@@H](N)CC(=O)O)C(=O)N[C@@H](CC(C)C)C(=O)NCC(=O)N[C@@H](C)C(=O)N[C@@H](CC(C)C)C(=O)N[C@@H](CCCNC(=N)N)C(=O)N[C@@H](CCCCN)C(=O)N2)NC(=O)[C@H](CSSC[C@@H](C(=O)N[C@@H](CCCCN)C(=O)N[C@@H](Cc2ccc(O)cc2)C(=O)N[C@H](C(=O)N[C@@H](Cc2ccccc2)C(N)=O)C(C)C)NC(=O)[C@H](Cc2c[nH]c4ccccc24)NC(=O)[C@H](CCCNC(=N)N)NC(=O)[C@H](Cc2c[nH]cn2)NC(=O)[C@H](CC(C)C)NC(=O)[C@H](CCCNC(=N)N)NC(=O)[C@H](CO)NC3=O)NC(=O)[C@H](CCCCN)NC(=O)[C@H](CC(=O)O)NC1=O [compound 800] (H-DCLGALRKCEPD[Pra]DKCCRPNLVCSRLHRWCKYVF-NH2; disulfide 2-17, 9-23, 16-30)	< 4.30	5.85	< 4.30	6.15	–	0.5
